Patent US6803357B1, “Method of regulating glucose metabolism, and reagents related thereto” (New England Medical Center Hospitals, Inc., priority 1999, dated 2004)

What was measured:
DP-IV = test: inhibition of / affinity for DP-IV; assay type: biochemical
Protocol: As an illustrative embodiment, the ability of a test agent to inhibit DPIV can be assessed using a calorimetric or fluorometric substrate, such as Ala-Pro-paranitroanilide. […] Moreover, DPIV can be purified, and is accordingly readily amenable for use in such high throughput formats as multi-well plates.
An illustrative reaction mixture includes […] (pH7.8), 10 μM Ala-Pro-paranitroanilide, 6 milliunits of DPIV, and 2% (v/v) dimethylformamide in a total volume of 1.0 mL. The reaction is initiated by addition of enzyme, and formation of reaction product (paranitroanilide) in the presence and absence of a test compound can be detected photometrically, e.g., at 410 nm.

blood glucose levels = test: oral glucose tolerance test (oral glucose challenge) in mice; assay type: in vivo; conditions: for glucose levels in blood / glucose control after a single injection: acute, single injection before oral glucose tolerance test; for blood sugar levels / glycemic excursion to oral glucose challenge, chronic treatment: injected twice daily for four days, then oral glucose challenge; for response to a sub-therapeutic dose of GLP-1: single injection, 8 μg GLP-1 five minutes prior to glucose
Protocol: The first two experiments are “acute” experiments wherein the mice were injected with a single dose of Pro-boro-pro. In the first set of experiments mice were injected with 150 μg of Pro-boro-pro (PBP-1) and then subjected to an oral glucose tolerance test within an hour. […] In a second set of experiments mice were injected with Pro-boro-pro (PBP-2) one hour prior to an oral glucose challenge test. FIG. 3 presents the results of these experiments. Each set of experiments was also performed using saline as a control.
The third set of experiments were “chronic” experiments, wherein the mice were injected twice daily with Pro-boro-pro for four days, followed by an oral glucose challenge.

CC(NC(=O)OC(C)(C)C)C(=O)N1CCCC1B(O)O (stereo not drawn) [Boc-blocked Ala-boroPro, Boc-Ala-boroPro]
affinity for DP-IV (DP-IV): no affinity

O=C(C1CCCN1)N1CCCC1B(O)O (centres unmarked) [Pro-boro-pro]
fasting blood sugars, chronic treatment (blood glucose levels; chronic (>5 days) treatment alone): lowers | glucose levels in blood / glucose control after a single injection (blood glucose levels; mice): alone sufficient to improve glucose control | glucose levels in blood / glucose control after a single injection (blood glucose levels; mice, listed as PBP-1): improves glucose levels in blood | glucose levels in blood / glucose control after a single injection (blood glucose levels; mice, listed as PBP-2): improves glucose levels in blood | blood sugar levels / glycemic excursion to oral glucose challenge, chronic treatment (blood glucose levels; mice): lowers | blood sugar levels / glycemic excursion to oral glucose challenge, chronic treatment (blood glucose levels; mice, listed as PBP-3): lowering of the blood sugar levels | blood sugar, oral glucose challenge (blood glucose levels; mice, overall statement on the experiments): clearly lowers blood sugar | response to a sub-therapeutic dose of GLP-1 (blood glucose levels; mice): potentiate the response | response to a sub-therapeutic dose of GLP-1 (blood glucose levels; mice, listed as PBP-1): potentiates the response

L-Ala-L-boroPro-pinacol [early fraction]
extent of DP-IV inhibition compared with later fractions (DP-IV; at equal concentrations, silica gel fractions of Ala-boroPro-pinacol): inhibits DP-IV to a greater extent than later fractions
